Assays:
[1] = TLC analysis of stability after purification; assay type: physicochemical; conditions: 24 hours after purification, in sodium ascorbate aqueous solution (final concentration 1%)
Procedure: The crude product solution (1 μL) was analyzed by thin-layer chromatography (TLC). The sample was spotted on a thin-layer plate (silica gel 60F254), and a mixed solvent of acetonitrile/water (2/1) was used as a developing solvent. The thin-layer plate was exposed to an imaging plate (BAS IP MS 2025E, GE Healthcare) for about 15 min, and then analyzed by a bioimage analyzer (Tyhoon™ FLA-7000, Cytiva). The results are shown in FIG. 2. ^211At-AAMT-OMe in the crude product solution was detected at Rf 0.80, and the radiochemical yield (RCY) was 81.3%.
(§1) The crude product solution was injected into an HLB column (Oasis, WAT-186005125) equilibrated with sterile distilled water (1 mL) to capture the target product in the cartridge, and sterile distilled water was passed through the cartridge to elute impurities. Next, 30% ethanol solution (500 μL) was passed through the cartridge to elute the target product into sodium ascorbate aqueous solution (500 μL, final concentration 1%), thus obtaining the purified product. The radiochemical yield and radiochemical purity of the purified product were 81% and 98%, respectively.
Before purification, immediately after production, 3 hours after production, and 24 hours after production, ^211At-AAMT-OMe was analyzed by thin-layer chromatography (TLC) in the same manner as described above.
as §1, with “product. This purified product was analyzed by thin-layer chromatography (TLC) in the same manner as described above.” for “product.”, “79.6%” for “81%”, “99.9%,” for “98%,”
24 hours after production, (R)-^211At-AAMT-OMe was analyzed by thin-layer chromatography (TLC) in the same manner as described above.
as §1, with “product. This purified product was analyzed by thin-layer chromatography (TLC) in the same manner as described above.” for “product.”, “75.9%” for “81%”, “99.27%,” for “98%,”
24 hours after production, ^211At-AAMT-OEt was analyzed by thin-layer chromatography (TLC) in the same manner as described above.
The crude product solution was injected into an HLB column (Oasis, WAT-186005125) equilibrated with sterile distilled water (1 mL) to capture the target product in the cartridge, and sterile distilled water was passed through the cartridge to elute impurities. […] This purified product was analyzed by thin-layer chromatography (TLC) in the same manner as described above. […]
24 hours after production, ^211At-AAMT-OPr was analyzed by thin-layer chromatography (TLC) in the same manner as described above. […]

PANC1 = assay: Cellular uptake test (Using PANC1); assay type: cell-based, human
Procedure: • Cells to be used: PANC1 • Culture medium to be used: D-MEM (containing 10% FBS, 1% P/S)
Two days before a test day, a cell suspension was prepared in such a manner that the concentration of predetermined cells was 1×10^5 cells/mL in the same manner as in Test Example 1. The cell suspension was seeded in a 24-well multiculture plate at a volume of 0.5 mL per well. On the day of the test, cultures were confirmed to be subconfluent (which refers to a state where 70-80% of the well is covered in density). The cells were washed twice with warmed PBS(-) Buffer (166-23555, FUJIFILM Wako Pure Chemical Corporation), the culture medium was replaced with HBSS(-) Buffer (085-09355, FUJIFILM Wako Pure Chemical Corporation), and the plate was left to stand in an incubator (MINIcell-35, WakenBtech Co., Ltd) until an RI addition test.
^211At-AAMT-OMe, ^211At-AAMT-OEt, ^211At-AAMT-OPr, or ^211At-AAMT was added to the prepared cells at 10 μL/well. BCH (LAT1 inhibitor, 20 mM) or unlabeled AMT (α-methyl tyrosine, 1 μg/mL) was previously (15 minutes before) added ([…]). The cells were cultured (CO2 5%, 37 °C), and after 30 minutes, the liquid was removed by suction using an aspirator. The cells were washed twice with PBS(-). The cells were lysed by adding 0.1N NaOH to obtain a lysate, and the radioactivity of the lysate was measured using a γ counter. After the radioactivity measurement, the lysate was loaded into a 96-well plate at a volume of 10 μL per well, the protein amount was measured by the BCA method, and the number of cells was corrected based on the protein amount. Absorbance was measured by MultiScanFC (Thermo Fisher). The uptake level of ^211At-AAMT-OMe, ^211At-AAMT-OEt, ^211-At-AAMT-OPr, or ^211At-AAMT into the cells (number of radioactivity counts/protein amount) was calculated.

Compound: COc1ccc(C[C@](C)(N)C(=O)O)cc1[At] [^211At-AAMT-OMe, (S)-3-astato(^211At)-O-methyl-α-methyltyrosine]
- decomposition by TLC [1]: no decomposition
- uptake level into cells (number of radioactivity counts/protein amount) (PANC1): much superior in uptake level to ^211At-AAMT
- uptake speed (PANC1; PANC1 cells, uptake level immediately after addition): much superior also in uptake speed

Reference: patent US20260337125A1, “RADIOLABELED TYROSINE DERIVATIVE AND APPLICATION THEREOF” (Osaka University, priority 2022, published 2026)
